For 16 compounds, IC50 and Ki results are on record in article PMC5641405 (Organic letters, 2017).

In general, IC50 refers to the midpoint of a concentration-inhibition curve. What is called Ki is the equilibrium dissociation constant of an inhibitor or competing ligand from its target.

Bounds are passed on as bounds.

The target of assay [1] is N-methyl-D-aspartate (NMDA) receptor, MK-801 binding site. Kind of assay: radioligand displacement of [3H]-MK801. Particulars: read-out: IC50 (μM) ^a; MK-801 channel site. For orientation: In a radioligand displacement assay an active substance lowers the binding of a labelled ligand.
The target is the same in assay [2]. Put plainly: radioligand displacement of [3H]-MK801. Particulars: read-out: Ki (μM) ^a; MK-801 channel site.

With `CNC1(c2ccccc2Cl)CCCCC1=O` (racemic) [compound 1, (R,S)-ketamine], the IC50 in assay [1] is 0.35 µM. Also, in assay [2], the Ki came to 0.25 µM.
For `N[C@@]1(c2ccccc2Cl)CCC=CC1=O` [3a, (R)-DHNK], the IC50 in assay [1] was 59.7 µM. Moreover, the Ki in assay [2] is 42.1 µM.
The corresponding values for `N[C@]1(c2ccccc2Cl)CCC=CC1=O` [3b, (S)-DHNK] are 42 µM and 29.7 µM.
The corresponding values for `N[C@@]1(c2ccccc2Cl)CCC[C@H](O)C1=O` [4a, (2R,6S)-HNK] are above 100 µM and above 100 µM.
The corresponding values for `N[C@]1(c2ccccc2Cl)CCC[C@@H](O)C1=O` [4b, (2S,6R)-HNK] are above 100 µM and above 100 µM.
Regarding `N[C@@]1(c2ccccc2Cl)CCC[C@@H](O)C1=O` [7a, (2R,6R)-HNK], in assay [1], the IC50 is above 100 µM. Also, in assay [2], the Ki is above 100 µM.
`N[C@]1(c2ccccc2Cl)CCC[C@H](O)C1=O` [7b, (2S,6S)-HNK]: the IC50 in assay [1] came out at 10.4 µM. Further, the Ki in assay [2] was determined as 7.34 µM.
The corresponding values for `N[C@@]1(c2ccccc2Cl)CC[C@@H](O)CC1=O` [8a, (2R,5R)-HNK] are above 100 µM and above 100 µM.
The corresponding values for `N[C@]1(c2ccccc2Cl)CC[C@H](O)CC1=O` [8b, (2S,5S)-HNK] are above 100 µM and above 100 µM.
The corresponding values for `N[C@@]1(c2ccccc2Cl)CC[C@H](O)CC1=O` [9a, (2R,5S)-HNK] are above 100 µM and above 100 µM.
Regarding `N[C@]1(c2ccccc2Cl)CC[C@@H](O)CC1=O` [9b, (2S,5R)-HNK], in assay [1], the IC50 is above 100 µM. In assay [2], the Ki is above 100 µM.
With `N[C@@]1(c2ccccc2Cl)C[C@@H](O)CCC1=O` [10a, (2R,4S)-HNK], the IC50 in assay [1] is above 100 µM. Moreover, the Ki in assay [2] is above 100 µM.
With `N[C@]1(c2ccccc2Cl)C[C@H](O)CCC1=O` [10b, (2S,4R)-HNK], the IC50 in assay [1] was above 100 µM. For the same compound, the Ki in assay [2] is above 100 µM.
On to `N[C@@]1(c2ccccc2Cl)C[C@H](O)CCC1=O` [11a, (2R,4R)-HNK], for which the IC50 in assay [1] is above 100 µM. Also, the Ki in assay [2] was above 100 µM.
Take `N[C@]1(c2ccccc2Cl)C[C@@H](O)CCC1=O` [11b, (2S,4S)-HNK]: in assay [1], the IC50 was above 100 µM. For the same compound, in assay [2], the Ki is above 100 µM.
Consider (+)-MK-801 [reference compound], for which the IC50 in assay [1] is 0.00493 µM. For the same compound, in assay [2], the Ki was 0.00348 µM.
